For series [1], the target named is T1, human enteropeptidase (Homo sapiens, UniProt P98073).
T1 construct: purchased ITSI-Biosciences, LLC #REN-260
Nature of the series: Human enteropeptidase enzyme assay. Type of series: biochemical. The procedure: Human recombinant enteropeptidase (#REN-260, ITSI-Biosciences, LLC) was diluted with an assay buffer (50 mM tricine (pH 8.0), 0.01(w/v)% Tween 20, 10 mM CaCl2) to prepare a 24 mU/mL enzyme solution. Subsequently, 5FAM–Abu–[…]CPQ2)–Lys–Lys–NH2 (purity: 97.2%, CPC Scientific, Inc.) was diluted with an assay buffer to prepare a 2.1 μM substrate solution. Compounds were dissolved in DMSO and then diluted in the assay buffer. The compound solution (5 μL/well) and the substrate solution (5 μL/well) were added to a 384-well black plate (#784076, Greiner Bio-One) and mixed. Then, the enzyme solution (5 μL/well) was added to the plate and mixed to start the reaction. The fluorescence intensity was measured at an excitation wavelength of 485 nm and a fluorescence wavelength of 535 nm using a fluorescence plate reader EnVision (PerkinElmer Inc.). Also, the same reaction as above was performed except that the test compound was not added (test compound non-supplemented group). In addition, the same reaction as above was performed except that neither the test compound nor the enzyme was added (control group).
Inhibition rate (%) = (1 – (fluorescence intensity of the test compound supplemented group – fluorescence intensity of the control group)/(fluorescence intensity of the test compound non-supplemented group – fluorescence intensity of the control group)) × 100.

Series [2] in a line: PAMPA (parallel artificial membrane permeability assay). Type of series: in vitro ADME. The conditions noted are these: for Papp: PAMPA. In general terms: The PAMPA barrier holds no transporters, so it reflects passive diffusion.
The target in series [3] is T1, human enteropeptidase. The series is described as follows: Dissociation assay (recovery of active enzyme after rapid dilution). Type of series: biochemical. The conditions noted are these: rapid dilution after 2 h preincubation of compound and enzyme. An excerpt:
Although not all reaction constants for 1c could be identified, the in vitro IC50 value could be used as an indicator of the combination of k1, k–1, and k2. In this case, the IC50 value of a compound is derived from its affinity for enteropeptidase (k1 and k–1) and its reactivity against enteropeptidase (k2). […] As the affinity of a compound for enteropeptidase is expected to largely contribute to the IC50 value based on initial velocities (IC50(initial)) relative to the IC50 value based on the steady state (IC50(app)), we performed chemical modifications based on IC50(initial). […] Because T1/2 can be an indicator of k3, we focused on compounds with low IC50(initial) values and long T1/2 values.
For dissociation assay, compounds were dissolved in DMSO and then diluted in assay buffer (50 mM Tricine pH 8.0, 0.01(w/v)% Tween20, 10 mM CaCl2). 10 μL of compound solution was added in 96-well plate (corning), and then, 10 μL of 100 mU/mL human recombinant enteropeptidase (ITSI-Biosciences) solution was added into the plate and incubated at room temperature for 2 h. […] After incubation, 2 μL of the compound-enzyme mixture was transferred to a 96-well black plate (Corning) and 200 μL of substrate solution (3 μM 5FAM–Abu–[…]CPQ2)–Lys–Lys–NH2 (CPC Scientific)) was added into the well. By rapid dilution, the inhibitor concentration went to 10-fold below the IC50 from 10-fold above the IC50. The fluorescence was measured each 2 min at excitation wavelength 485 nm and emission wavelength 535 nm by EnVision (Perkin Elmer). The progress curves were fitted to following equation to determine the values for koff and dissociation half-life T1/2 according to the following equations. [drawing 4] 1 where t is time and F is fluorescence from initial rate vo to steady state rate vs. [drawing 5] 2

A short description of series [4]: Aqueous stability at pH 1.2/6.8. Type of series: physicochemical. The conditions noted are these: 24 h; for stability at pH 1.2 (% decomposed): pH 1.2, 37 °C; for stability at pH 6.8 (% decomposed): pH 6.8, 37 °C. The procedure:
Sample solutions in pH 1.2/6.8 media (first/second fluids for the disintegration test in the Japanese Pharmacopoeia 17th edition, including 10% dimethyl sulfoxide if needed, 10 μg/mL) were prepared for the compounds and incubated at 37 °C. The sample solutions were measured initially and at 24 h using HPLC, and peak analysis was conducted. Residual contents (%) of the compounds in pH 1.2/6.8 media at 37 °C after 24 h of incubation of the initial solutions were calculated using the peak areas.

Series [5] is described as follows: Kinetic aqueous solubility at pH 1.2/6.8. It is filed as physicochemical. The conditions noted are these: aqueous medium, kinetic from dmso stock.
The next series relates to High-Fat-Diet-Fed Mice. The series is described as follows: Increase in fecal protein output in high-fat-diet-fed mice. It is filed as in vivo, mouse. As to conditions: 10 mg/kg, oral. As for the experimental part: A high-fat diet (HFD)-fed mouse (D12079B diet, male, 14–21 weeks old) was used for the in vivo assay. For compound screening, mice were orally administered with either the test compound (10 mg/kg) or 0.5% methylcellulose (MC) as a vehicle control. For the assessment of efficacy by systemic exposure of the compound, mice were subcutaneously administered with compound 2a (10 mg/kg) or saline as a vehicle control and compared with those administered oral treatment (60 mg/kg). Doses were selected to achieve equivalent systemic exposure as the area under the curve over 24 h based on pharmacokinetic data of both oral and subcutaneous administration. Whole feces were collected overnight, and the fecal protein output was evaluated as described previously.[33]

Another series relates to DIO mice. As to conditions: growth phase; cited from earlier work.
Setting [6] is: 6 min, supplement csv, unit inferred, read-out: human enteropeptidase IC50 (6 min).
The mark [7] stands for this setting: 120 min, supplement csv, unit inferred, read-out: human enteropeptidase IC50 (120 min).
Setting [8] is: 6 min incubation of enzyme, substrate and compound at room temperature, 95% confidence intervals in parentheses, read-out: Human enteropeptidase IC50(initial).
Setting [9] is: 120 min incubation of enzyme, substrate and compound at room temperature, 95% confidence intervals in parentheses, read-out: Human enteropeptidase IC50(app).
[10] abbreviates: pH 1.2, simulated gastric fluid, read-out: Kinetic aqueous solubility at pH 1.2.
Setting [11] is: pH 6.8, aqueous buffer, read-out: Kinetic aqueous solubility at pH 6.8.

Counter-ions that a name gives are not always drawn. Like-named read-outs stand apart in the source and are kept apart here.

T1 sequence (P98073 whole entry): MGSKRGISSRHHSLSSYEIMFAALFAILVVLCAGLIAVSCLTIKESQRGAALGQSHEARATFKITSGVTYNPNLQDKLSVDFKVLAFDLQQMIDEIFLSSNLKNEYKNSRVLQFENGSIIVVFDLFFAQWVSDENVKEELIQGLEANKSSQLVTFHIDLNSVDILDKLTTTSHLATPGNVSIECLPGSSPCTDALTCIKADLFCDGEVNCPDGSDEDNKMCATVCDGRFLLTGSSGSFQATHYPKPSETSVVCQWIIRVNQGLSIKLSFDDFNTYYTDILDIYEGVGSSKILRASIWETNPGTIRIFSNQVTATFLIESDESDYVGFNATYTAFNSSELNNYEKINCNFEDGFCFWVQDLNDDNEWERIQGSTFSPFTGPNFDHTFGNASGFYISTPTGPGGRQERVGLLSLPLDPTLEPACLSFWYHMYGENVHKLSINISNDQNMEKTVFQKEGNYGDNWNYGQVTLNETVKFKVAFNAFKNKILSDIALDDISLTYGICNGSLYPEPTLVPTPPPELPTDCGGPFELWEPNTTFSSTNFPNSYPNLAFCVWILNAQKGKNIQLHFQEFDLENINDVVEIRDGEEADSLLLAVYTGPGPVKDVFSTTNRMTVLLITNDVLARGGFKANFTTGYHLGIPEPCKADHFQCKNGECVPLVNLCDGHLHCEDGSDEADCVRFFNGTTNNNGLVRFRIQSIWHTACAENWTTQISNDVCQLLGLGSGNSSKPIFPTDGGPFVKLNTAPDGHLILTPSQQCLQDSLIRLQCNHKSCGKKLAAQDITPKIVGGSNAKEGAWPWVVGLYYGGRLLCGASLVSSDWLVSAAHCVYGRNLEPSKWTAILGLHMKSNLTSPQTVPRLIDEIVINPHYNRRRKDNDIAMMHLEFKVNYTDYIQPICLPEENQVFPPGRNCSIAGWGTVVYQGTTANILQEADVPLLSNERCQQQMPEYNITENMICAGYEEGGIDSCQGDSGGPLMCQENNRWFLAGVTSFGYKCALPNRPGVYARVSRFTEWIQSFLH

Regarding `Cc1cc(OC(=O)c2ccc(NC(=N)N)cc2)no1.Cl` [1a], the half-inhibitory concentration (IC50) at human enteropeptidase [1] (setting [6]) came to 1500 nM. For the same compound, the Papp in series [2] (pH 7.4, read-out: PAMPA at pH 7.4) was determined as 0.3 ×10⁻⁶ cm/s; in series [2] (pH 5.0, read-out: PAMPA at pH 5.0), 0.5 ×10⁻⁶ cm/s.

Regarding `CS(=O)(=O)O.N=C(N)Nc1ccc(C(=O)Oc2ccccc2)cc1` [1b], the results for the IC50 on human enteropeptidase [1] (setting [6]) and on human enteropeptidase [1] (setting [7]) were 5600 nM and 400 nM, respectively. For the same compound, the “PAMPA at pH 5.0” value in series [2] (pH 5.0) is given as less than 2 nm/sec. Also, the “PAMPA at pH 7.4” value in series [2] (pH 7.4) is less than 2 nm/sec.

For `N=C(N)Nc1ccc(C(=O)Oc2ccc(CC(=O)NCC(=O)O)cc2)cc1.O=C(O)C(F)(F)F` [1c, N-({4-[(4-Carbamimidamidobenzoyl)oxy]phenyl}acetyl)glycine Trifluoroacetic Acid Salt], the half-maximal inhibitory concentration (IC50) on human enteropeptidase [1] (setting [6]) amounted to 540 nM; at human enteropeptidase [1] (setting [7]), 30 nM. For the same compound, the “PAMPA at pH 5.0” value in series [2] (pH 5.0) stood at 2 nm/sec. The “PAMPA at pH 7.4” value in series [2] (pH 7.4) was determined as 2 nm/sec.

Take `N=C(N)Nc1ccc(C(=O)Oc2ccc(CC(=O)N[C@@H](CC(N)=O)C(=O)O)cc2)cc1` [2b, N^2-({4-[(4-Carbamimidamidobenzoyl)oxy]phenyl}acetyl)-L-asparagine Trifluoroacetic Acid Salt]: the 50% inhibitory concentration (IC50) at human enteropeptidase [1] (setting [8]) came out at 310 nM; at human enteropeptidase [1] (setting [9]), 23 nM.

As to `N=C(N)Nc1ccc(C(=O)Oc2ccc(CC(=O)N[C@@H](CCC(=O)O)C(=O)O)cc2)cc1` [2c, N-({4-[(4-Carbamimidamidobenzoyl)oxy]phenyl}acetyl)-L-glutamic Acid Hydrochloride], the half-inhibitory concentration (IC50) at human enteropeptidase [1] (setting [8]) was 120 nM; on human enteropeptidase [1] (setting [9]), 7.9 nM.

Turning to `Cc1cc(C(=O)Oc2ccc(CC(=O)N[C@@H](CC(=O)O)C(=O)O)cc2)ccc1NC(=N)N` [3a, N-({4-[(4-Carbamimidamido-3-methylbenzoyl)oxy]phenyl}acetyl)-L-aspartic Acid], at human enteropeptidase [1] (6 min, methyl group at the 3-position), the “fold decrease in IC50(initial) relative to 2a” value is reported as “more than 30 fold”. Besides, the IC50 at human enteropeptidase [1] (setting [8]) is more than 3300 nM; at human enteropeptidase [1] (setting [9]), 680 nM.

With `Cc1cc(NC(=N)N)ccc1C(=O)Oc1ccc(CC(=O)N[C@@H](CC(=O)O)C(=O)O)cc1` [3b, N-({4-[(4-Carbamimidamido-2-methylbenzoyl)oxy]phenyl}acetyl)-L-aspartic Acid], the IC50 on human enteropeptidase [1] (setting [8]) is 940 nM; at human enteropeptidase [1] (setting [9]), 54 nM. In addition, the “T1/2, half-time of dissociation from human enteropeptidase” value (“T1/2, half-time of dissociation” for short) at human enteropeptidase [3] was more than 120 min.

Consider `N=C(N)Nc1ccc(C(=O)Oc2ccc(CC(=O)N[C@@H](CC(=O)O)C(=O)O)cc2)c(Cl)c1` [3c, N-({4-[(4-Carbamimidamido-2-chlorobenzoyl)oxy]phenyl}acetyl)-L-aspartic Acid], for which the IC50 on human enteropeptidase [1] (setting [8]) came out at 57 nM; at human enteropeptidase [1] (setting [9]) it was 5.6 nM. Further, the “T1/2, half-time of dissociation” value at human enteropeptidase [3] came to 14 min.

Take `N=C(N)Nc1ccc(C(=O)Oc2ccc(CC(=O)N[C@@H](CC(=O)O)C(=O)O)cc2)c(F)c1` [3d, N-({4-[(4-Carbamimidamido-2-fluorobenzoyl)oxy]phenyl}acetyl)-L-aspartic Acid]: the half-maximal inhibitory concentration (IC50) at human enteropeptidase [1] (setting [8]) was 7.4 nM; at human enteropeptidase [1] (setting [9]) it was 0.81 nM. In addition, the “T1/2, half-time of dissociation” value at human enteropeptidase [3] was 6.1 min.

For `N=C(N)Nc1ccc(C(=O)Oc2cccc(CC(=O)N[C@@H](CC(=O)O)C(=O)O)c2)cc1.O=C(O)C(F)(F)F` [4a, N-({3-[(4-Carbamimidamidobenzoyl)oxy]phenyl}acetyl)-L-aspartic Acid Trifluoroacetic Acid Salt], the IC50 on human enteropeptidase [1] (setting [8]) was determined as 32 nM; at human enteropeptidase [1] (setting [9]), 1.6 nM. The “stability at pH 1.2 (% decomposed)” value in series [4] is reported as 2.8 % decomposed. In series [4], the “stability at pH 6.8 (% decomposed)” value is 5.8 % decomposed. In addition, the results for the solubility (kinetic) in series [5] (setting [10]) and in series [5] (setting [11]) were more than 86 µg/mL and more than 92 µg/mL, respectively. The “fecal protein output (fold of 2a)” value with High-Fat-Diet-Fed Mice is 0.97 fold of 2a.

Take `N=C(N)Nc1ccc(C(=O)Oc2cccc(C(=O)N[C@@H](CC(=O)O)C(=O)O)c2)cc1.O=C(O)C(F)(F)F` [4b, N-{3-[(4-Carbamimidamidobenzoyl)oxy]benzoyl}-L-aspartic Acid Trifluoroacetic Acid Salt]: the half-inhibitory concentration (IC50) on human enteropeptidase [1] (setting [8]) was found to be 13 nM; on human enteropeptidase [1] (setting [9]), 0.82 nM. The “stability at pH 1.2 (% decomposed)” value in series [4] came out at 3.9 % decomposed. Further, the “stability at pH 6.8 (% decomposed)” value in series [4] worked out at 8.6 % decomposed. The solubility (kinetic) in series [5] (setting [10]) was more than 91 µg/mL; in series [5] (setting [11]), more than 89 µg/mL. In addition, the “fecal protein output (fold of 2a)” value in the series with High-Fat-Diet-Fed Mice is given as 0.82 fold of 2a.

As for `N=C(N)Nc1ccc(C(=O)Oc2ccc(C(=O)N[C@@H](CC(=O)O)C(=O)O)cc2)cc1.O=C(O)C(F)(F)F` [4c, N-{4-[(4-Carbamimidamidobenzoyl)oxy]benzoyl}-L-aspartic Acid Trifluoroacetic Acid Salt], the 50% inhibitory concentration (IC50) at human enteropeptidase [1] (setting [8]) stood at 65 nM; at human enteropeptidase [1] (setting [9]) it was 3.2 nM. Moreover, the kinetic solubility in series [5] (setting [10]) is 69 µg/mL; in series [5] (setting [11]) it was more than 88 µg/mL. The “fecal protein output (fold of 2a)” value in the series with High-Fat-Diet-Fed Mice is 0.88 fold of 2a.

In the case of `N=C(N)Nc1ccc(C(=O)Oc2ccc3c(c2)OC(CC(=O)N[C@@H](CC(=O)O)C(=O)O)C3)cc1` (stereo partly drawn) [5a, N-({6-[(4-Carbamimidamidobenzoyl)oxy]-2,3-dihydro-1-benzofuran-2-yl}acetyl)-L-aspartic Acid], the IC50 on human enteropeptidase [1] (setting [8]) came out at 180 nM; on human enteropeptidase [1] (setting [9]), 14 nM.

As for `N=C(N)Nc1ccc(C(=O)Oc2cccc(C3=NO[C@@](CC(=O)O)(C(=O)O)C3)c2)cc1` [6c, (5S)-3-{3-[(4-Carbamimidamidobenzoyl)oxy]phenyl}-5-(carboxymethyl)-4,5-dihydro-1,2-oxazole-5-carboxylic Acid], the IC50 was 26 nM on human enteropeptidase [1] (setting [8]) and 1.8 nM at human enteropeptidase [1] (setting [9]). Moreover, the “fecal protein output (fold of 2a)” value with High-Fat-Diet-Fed Mice was 1.23 fold of 2a.

For the compound `N=C(N)Nc1ccc(C(=O)Oc2ccc3c(c2)OC[C@@H]3CC(=O)N[C@@H](CC(=O)O)C(=O)O)cc1` [(R)-5b, N-({(3R)-6-[(4-Carbamimidamidobenzoyl)oxy]-2,3-dihydro-1-benzofuran-3-yl}acetyl)-L-aspartic Acid], the half-maximal inhibitory concentration (IC50) at human enteropeptidase [1] (setting [8]) came out at 84 nM; on human enteropeptidase [1] (setting [9]) it was 7.7 nM. The “fecal protein output (fold of 2a)” value in the series with High-Fat-Diet-Fed Mice was 1.26 fold of 2a.

`CC(=O)N[C@@H](C)C(=O)N[C@@H](Cc1ccccc1)C(=O)N[C@@H](CCCCN)B1O[C@@H]2C[C@@H]3C[C@@H](C3(C)C)[C@]2(C)O1` [OBE-2008]: the “rate of body weight gain” value in the series on DIO mice is on record as “significantly reduced”.

In general, IC50 refers to the point on the concentration scale where inhibition reaches its midpoint. The kinetic solubility is the concentration staying in solution when a stock, usually in DMSO, is diluted into the medium.

Values taken from paper PMC9234964, “Design, Synthesis, and Biological Evaluation of a Novel Series of 4-Guanidinobenzoate Derivatives as Enteropeptidase Inhibitors with Low Systemic Exposure for the Treatment of Obesity” (Journal of Medicinal Chemistry, 2022).
